Measurements: US10584156B2, “Insulin analogues with a glucose-regulated conformational switch” (CASE WESTERN RESERVE UNIVERSITY, priority 2015, dated 2020)

Experiment: EDTA cobalt-sequestration assay of R6 insulin hexamer disassembly, with or without glucose
Type: physicochemical
Conditions: 25 mM glucose vs none, pH 7.4, large excess of EDTA, phenol-stabilized Co^2+ R6 hexamer
Source text: Glucose-responsive rates of disassembly were investigated using a spectroscopy assay in which the visible absorption spectrum of a cobalt (Co^2+)-substituted insulin hexamer was obtained in the presence of phenol as an R6 hexamer.
This band arises front the unfilled d-shell electrons of the cobalt ion and is a specific signature of a tetrahedral coordination environment. Addition of a large excess of the chelating agent ethylene-diamine-tetra-acetic acid (EDTA) leads to progressive sequestration of the metal ion (in a colorless octahedral complex) and so provides a rapid and convenient probe of the kinetics of hexamer disassembly.
To this end, insulin analogues were made 0.6 mM in a buffer containing 50 mM Tris-HCl (pH 7.4), 50 mM phenol, 0.2 mM CoCl2, and 2 mM NaSCN in the absence of glucose or in the presence of 25 mM glucose. The sample pH was in each case 7.4, and samples were incubated overnight at room temperature prior to the studies to ensure that a conformational equilibrium was reached. Spectra (400-750 nm) were obtained to monitor tetrahedral Co^2+ coordination with its signature d-d absorption band at or near 574 nm. To determine the rate of Co^2+ release from the hexamers, metal-ion sequestration was initiated at 33° C. […] Attenuation of the 574-nm absorption band was monitored on a time scale of seconds to hours. […]

Question: With “wild-type human insulin: Human insulin, A chain SEQ ID NO: 2 and B chain SEQ ID NO: 3” as the substance, how does the “difference in rate of hexamer disassembly (loss of R-state-specific d-d band) in presence versus absence of glucose” value read?
Answer: No difference was observed

Question: And the “difference in rate of hexamer disassembly (loss of R-state-specific d-d band) in presence versus absence of glucose” value (listed as Wild-type insulin)?
Answer: the same rate of loss
